Test results taken from ChEMBL document CHEMBL4400520, “Benzofuran-isatin-imine hybrids tethered via different length alkyl linkers: Design, synthesis and in vitro evaluation of anti-tubercular and anti-bacterial activities as well as cytotoxicity” (Eur J Med Chem, 2019).
In brackets after ≈: the same amount, converted by molar mass.

Legend:
[1] = tested on: Klebsiella pneumoniae; test: Antibacterial activity against Klebsiella pneumoniae; assay type: functional
[2] = tested on: Staphylococcus epidermidis; test: Antibacterial activity against methicillin-resistant Staphylococcus epidermidis; assay type: functional
[3] = tested on: Escherichia coli; test: Antibacterial activity against Escherichia coli; assay type: functional
[4] = tested on: Staphylococcus aureus; test: Antibacterial activity against methicillin-resistant Staphylococcus aureus; assay type: functional
[5] = tested on: Citrobacter freundii; test: Antibacterial activity against Citrobacter freundii; assay type: functional
[6] = Cytotoxicity against African green monkey Vero cells assessed as reduction in cell viability after 72 hrs by MTT assay; assay type: cell-based; details: chlorocebus sabaeus, Vero cells
[7] = tested on: Staphylococcus epidermidis; test: Antibacterial activity against methicillin-sensitive Staphylococcus epidermidis; assay type: functional
[8] = tested on: Enterococcus faecium; test: Antibacterial activity against Enterococcus faecium; assay type: functional
[9] = tested on: Pseudomonas aeruginosa; test: Antibacterial activity against Pseudomonas aeruginosa ATCC 27853; assay type: functional
[10] = tested on: Enterobacter cloacae; test: Antibacterial activity against Enterobacter cloacae; assay type: functional
[11] = tested on: Klebsiella aerogenes; test: Antibacterial activity against Enterobacter aerogenes; assay type: functional
[12] = tested on: Mycobacterium tuberculosis; test: Antitubercular activity against Mycobacterium tuberculosis H37Rv; assay type: functional
[13] = tested on: Proteus mirabilis; test: Antibacterial activity against Proteus mirabilis; assay type: functional
[14] = tested on: Staphylococcus aureus; test: Antibacterial activity against methicillin-sensitive Staphylococcus aureus; assay type: functional
[15] = Selectivity index, ratio of CC50 for African green monkey Vero cells to MIC for Mycobacterium tuberculosis H37Rv; assay type: toxicity; details: read-out: Selectivity Index
[16] = tested on: Enterococcus faecalis; test: Antibacterial activity against Enterococcus faecalis; assay type: functional
[17] = tested on: Acinetobacter calcoaceticus; test: Antibacterial activity against Acinetobacter calcoaceticus; assay type: functional

Structure (SMILES) | MIC90 [1] [µg/mL] | MIC90 [2] [µg/mL] | MIC90 [3] [µg/mL] | MIC90 [4] [µg/mL] | MIC90 [5] [µg/mL] | CC50 at 72 h [6] [µg/mL] | MIC90 [7] [µg/mL] | MIC90 [8] [µg/mL] | MIC90 [9] [µg/mL] | MIC90 [10] [µg/mL] | MIC90 [11] [µg/mL] | MIC [12] [µg/mL] | MIC90 [13] [µg/mL] | MIC90 [14] [µg/mL] | selectivity ratio [15] | MIC90 [16] [µg/mL] | MIC90 [17] [µg/mL]
CCOC(=O)c1c(-c2ccc(OC)cc2)oc2ccc(OCCCCCN3C(=O)/C(=N\OC)c4cc(F)ccc43)cc12 | 0.5 (≈ 0.87 µM) | 4 (≈ 6.96 µM) | 0.125 (≈ 0.218 µM) | 2 (≈ 3.48 µM) | 0.125 (≈ 0.218 µM) | 32 (≈ 55.7 µM) | 0.5 (≈ 0.87 µM) | 16 (≈ 27.8 µM) | 1 (≈ 1.74 µM) | 2 (≈ 3.48 µM) | 0.125 (≈ 0.218 µM) | < 0.016 | 0.06 (≈ 0.104 µM) | 4 (≈ 6.96 µM) | > 2000 | 1 (≈ 1.74 µM) | 1 (≈ 1.74 µM)
CCO/N=C1\C(=O)N(CCCOc2ccc3oc(-c4ccc(OC)cc4)c(C(=O)OCC)c3c2)c2ccc(OC)cc21 | 2 (≈ 3.49 µM) | 8 (≈ 14 µM) | 0.5 (≈ 0.873 µM) | 8 (≈ 14 µM) | 2 (≈ 3.49 µM) | 32 (≈ 55.9 µM) | 1 (≈ 1.75 µM) | 64 (≈ 112 µM) | 4 (≈ 6.99 µM) | 1 (≈ 1.75 µM) | 2 (≈ 3.49 µM) | < 0.016 | 4 (≈ 6.99 µM) | 4 (≈ 6.99 µM) | > 4000 | 8 (≈ 14 µM) | 4 (≈ 6.99 µM)
CCOC(=O)c1c(-c2ccc(OC)cc2)oc2ccc(OCCCCCCN3C(=O)/C(=N\NC(N)=S)c4ccccc43)cc12 | 8 (≈ 13 µM) | 4 (≈ 6.51 µM) | 1 (≈ 1.63 µM) | 0.5 (≈ 0.813 µM) | 2 (≈ 3.25 µM) | 8 (≈ 13 µM) | 1 (≈ 1.63 µM) | 64 (≈ 104 µM) | 4 (≈ 6.51 µM) | 1 (≈ 1.63 µM) | 2 (≈ 3.25 µM) | < 0.016 | 1 (≈ 1.63 µM) | 1 (≈ 1.63 µM) | > 500 | 1 (≈ 1.63 µM) | 4 (≈ 6.51 µM)
CCOC(=O)c1c(-c2ccc(OC)cc2)oc2ccc(OCCCCCN3C(=O)/C(=N\OC)c4ccccc43)cc12 | 2 (≈ 3.59 µM) | 4 (≈ 7.19 µM) | 0.25 (≈ 0.449 µM) | 4 (≈ 7.19 µM) | 1 (≈ 1.8 µM) | 32 (≈ 57.5 µM) | 0.5 (≈ 0.898 µM) | 32 (≈ 57.5 µM) | 1 (≈ 1.8 µM) | 0.25 (≈ 0.449 µM) | 1 (≈ 1.8 µM) | 0.049 (≈ 0.088 µM) | 0.5 (≈ 0.898 µM) | 2 (≈ 3.59 µM) | 1030 | 4 (≈ 7.19 µM) | 1 (≈ 1.8 µM)
CCO/N=C1\C(=O)N(CCCCCOc2ccc3oc(-c4ccc(OC)cc4)c(C(=O)OCC)c3c2)c2ccc(OC)cc21 | 2 (≈ 3.33 µM) | 4 (≈ 6.66 µM) | 0.125 (≈ 0.208 µM) | 1 (≈ 1.66 µM) | 0.125 (≈ 0.208 µM) | 16 (≈ 26.6 µM) | 1 (≈ 1.66 µM) | 16 (≈ 26.6 µM) | 2 (≈ 3.33 µM) | 0.06 (≈ 0.0999 µM) | 0.125 (≈ 0.208 µM) | 0.156 (≈ 0.26 µM) | 0.06 (≈ 0.0999 µM) | 1 (≈ 1.66 µM) | 102 | 1 (≈ 1.66 µM) | 2 (≈ 3.33 µM)
CCO/N=C1\C(=O)N(CCCOc2ccc3oc(-c4ccc(OC)cc4)c(C(=O)OCC)c3c2)c2ccccc21 | 1 (≈ 1.84 µM) | 8 (≈ 14.7 µM) | 0.5 (≈ 0.922 µM) | 4 (≈ 7.37 µM) | 2 (≈ 3.69 µM) | 16 (≈ 29.5 µM) | 1 (≈ 1.84 µM) | 16 (≈ 29.5 µM) | 4 (≈ 7.37 µM) | 4 (≈ 7.37 µM) | 1 (≈ 1.84 µM) | < 0.016 | 2 (≈ 3.69 µM) | 8 (≈ 14.7 µM) | > 8000 | 4 (≈ 7.37 µM) | 2 (≈ 3.69 µM)
CCOC(=O)c1c(-c2ccc(OC)cc2)oc2ccc(OCCCN3C(=O)/C(=N\OC)c4ccccc43)cc12 | 1 (≈ 1.89 µM) | 1 (≈ 1.89 µM) | 0.25 (≈ 0.473 µM) | 4 (≈ 7.57 µM) | 1 (≈ 1.89 µM) | 128 (≈ 242 µM) | 0.5 (≈ 0.946 µM) | 32 (≈ 60.5 µM) | 2 (≈ 3.78 µM) | 0.5 (≈ 0.946 µM) | 1 (≈ 1.89 µM) | < 0.016 | 0.5 (≈ 0.946 µM) | 4 (≈ 7.57 µM) | > 1000 | 4 (≈ 7.57 µM) | 1 (≈ 1.89 µM)
CCOC(=O)c1c(-c2ccccc2)oc2ccc(OCCCN3C(=O)/C(=N\OC)c4ccccc43)cc12 | 0.5 (≈ 1 µM) | 0.5 (≈ 1 µM) | 0.25 (≈ 0.501 µM) | 2 (≈ 4.01 µM) | 0.5 (≈ 1 µM) | 64 (≈ 128 µM) | 0.125 (≈ 0.251 µM) | 8 (≈ 16 µM) | 1 (≈ 2.01 µM) | 2 (≈ 4.01 µM) | 0.25 (≈ 0.501 µM) | < 0.016 | 0.5 (≈ 1 µM) | 8 (≈ 16 µM) | > 2000 | 1 (≈ 2.01 µM) | 1 (≈ 2.01 µM)
CCO/N=C1\C(=O)N(CCCCCCOc2ccc3oc(-c4ccc(OC)cc4)c(C(=O)OCC)c3c2)c2ccccc21 | 1 (≈ 1.71 µM) | 8 (≈ 13.7 µM) | 0.5 (≈ 0.855 µM) | 1 (≈ 1.71 µM) | 1 (≈ 1.71 µM) | 16 (≈ 27.4 µM) | 1 (≈ 1.71 µM) | 32 (≈ 54.7 µM) | 1 (≈ 1.71 µM) | 0.5 (≈ 0.855 µM) | 0.25 (≈ 0.428 µM) | < 0.016 | 0.25 (≈ 0.428 µM) | 1 (≈ 1.71 µM) | > 1000 | 2 (≈ 3.42 µM) | 2 (≈ 3.42 µM)
